Measurements as given in patent US20250195513A1, “DEGRADATION OF IRAK4 BY CONJUGATION OF IRAK4 INHIBITORS WITH E3 LIGASE LIGAND AND METHODS OF USE” (BeiGene, Ltd., priority 2022, published 2025).
Values belong to the compound of their own block, whether it stands above or below them.

How the values were obtained:
[1] = molecular target: T1, IRAK4 (Homo sapiens, UniProt Q9NWZ3); experiment: IRAK4 Degradation Assay with Human Serum (Karpas299, HTRF/TR-FRET); type: cell-based; details: Karpas-299 in human serum, 24 hrs treatment; for DC50: read-out: IRAK4 degradtion with human serum assay DC50; for Dmax: read-out: IRAK4 degradtion with human serum assay Dmax (%)
T1 construct: endogenous in cells; host or cells: Karpas299
T1 sequence (Q9NWZ3 1-460): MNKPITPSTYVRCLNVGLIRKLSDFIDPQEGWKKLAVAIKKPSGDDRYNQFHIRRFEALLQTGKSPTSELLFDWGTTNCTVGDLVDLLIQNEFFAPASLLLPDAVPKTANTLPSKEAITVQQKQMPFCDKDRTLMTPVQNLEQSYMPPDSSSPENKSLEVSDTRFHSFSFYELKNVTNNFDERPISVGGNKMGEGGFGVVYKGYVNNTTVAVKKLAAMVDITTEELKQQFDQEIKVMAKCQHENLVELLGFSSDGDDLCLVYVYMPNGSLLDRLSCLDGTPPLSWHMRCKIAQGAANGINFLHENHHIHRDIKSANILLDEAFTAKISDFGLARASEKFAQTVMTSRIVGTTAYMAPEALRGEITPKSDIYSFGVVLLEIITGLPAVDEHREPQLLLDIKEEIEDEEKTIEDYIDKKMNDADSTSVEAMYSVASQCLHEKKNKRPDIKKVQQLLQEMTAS
How it was run: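 Remaining IRAK4 measured by TR-FRET immunoassay on lysates of Karpas299 cells exposed 24 h to compound dilution series in human serum AB. DC50 derived from a Hill-slope fit of % degradation versus concentration.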

[2] = molecular target: T1, IRAK4; experiment: IRAK4 Degradation Assay (Karpas299, HTRF/TR-FRET); type: cell-based; details: Karpas-299 cells, 24 h treatment; for Dmax: maximum percentage of degradation, read-out: IRAK4 in Karpas-299 (24 h) Dmax (%); for DC50: read-out: IRAK4 in Karpas-299 (24 h) DC50
How it was run: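 Compound potency as DC50 (IC50) came from four-parameter fits of percent IRAK4 degradation. IRAK4 was measured by HTRF (665/620 nm) in lysates of Karpas299 cells seeded at 0.2 million per well. Cells had been treated with compound dilutions for 5 or 24 h.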

SMILES: COc1cc2nn([C@H]3CC[C@H](N4CCN(C5CCN(c6cc(F)c([C@H]7CCC(=O)NC7=O)c(F)c6)CC5)CC4)CC3)cc2cc1NC(=O)c1ccc2cc(C#N)cnn12 [Example 338, 3-cyano-N-(2-((1r,4r)-4-(4-(1-(4-((R)-2,6-dioxopiperidin-3-yl)-3,5-difluorophenyl)piperidin-4-yl)piperazin-1-yl)cyclohexyl)-6-methoxy-2H-indazol-5-yl)pyrrolo[1,2-b]pyridazine-7-carboxamide]
DC50 [1]: 13 nM
Dmax [1]: 92%
Dmax [2]: 95%
DC50 [2]: 1.1 nM

SMILES: COc1cc(N2CC[C@@H](C(=O)N3CCN([C@H]4CC[C@H](n5cc6cc(NC(=O)c7ccc8cc(C#N)cnn78)c(C(C)(C)O)cc6n5)CC4)CC3)C2)cc(F)c1N1CCC(=O)NC1=O [Example 212, 3-cyano-N-(2-((1R,4r)-4-(4-((R)-1-(4-(2,4-dioxotetrahydropyrimidin-1(2H)-yl)-3-fluoro-5-methoxyphenyl)pyrrolidine-3-carbonyl)piperazin-1-yl)cyclohexyl)-6-(2-hydroxypropan-2-yl)-2H-indazol-5-yl)pyrrolo[1,2-b]pyridazine-7-carboxamide]
DC50 [1]: 40 nM
Dmax [1]: 95%
Dmax [2]: 94%
DC50 [2]: 3.6 nM

SMILES: COC[C@@H]1CN(C(=O)C2CN(c3cc(F)c([C@H]4CCC(=O)NC4=O)c(F)c3)C2)CCN1[C@H]1CC[C@H](n2cc3cc(NC(=O)c4ccc5cc(C#N)cnn45)c(C(C)(C)O)cc3n2)CC1 [Example 183, 3-cyano-N-(2-((1S,4r)-4-((S)-4-(1-(4-((R)-2,6-dioxopiperidin-3-yl)-3,5-difluorophenyl)azetidine-3-carbonyl)-2-(methoxymethyl)piperazin-1-yl)cyclohexyl)-6-(2-hydroxypropan-2-yl)-2H-indazol-5-yl)pyrrolo[1,2-b]pyridazine-7-carboxamide]
DC50 [1]: 35 nM
Dmax [1]: 95%
Dmax [2]: 98%
DC50 [2]: 0.3 nM

SMILES: COC[C@H]1CN([C@H]2CC[C@H](n3cc4cc(NC(=O)c5ccc6cc(C#N)cnn56)c(C(C)(C)O)cc4n3)CC2)CCN1C(=O)[C@@H]1CCN(c2cc(F)c([C@H]3CCC(=O)NC3=O)c(F)c2)C1 [Example 313, 3-cyano-N-(2-((1R,4r)-4-((R)-4-((R)-1-(4-((R)-2,6-dioxopiperidin-3-yl)-3,5-difluorophenyl)pyrrolidine-3-carbonyl)-3-(methoxymethyl)piperazin-1-yl)cyclohexyl)-6-(2-hydroxypropan-2-yl)-2H-indazol-5-yl)pyrrolo[1,2-b]pyridazine-7-carboxamide]
DC50 [1]: 24 nM
Dmax [1]: 96%
Dmax [2]: 98%
DC50 [2]: 0.3 nM

SMILES: CC(C)(O)c1cc2nn([C@H]3CC[C@H](N4CCN(C5CN(c6cc(F)c([C@H]7CCC(=O)NC7=O)c(F)c6)C5)CC4=O)CC3)cc2cc1NC(=O)c1ccc2cc(C#N)cnn12 [Example 335, 3-cyano-N-(2-((1R,4r)-4-(4-(1-(4-((R)-2,6-dioxopiperidin-3-yl)-3,5-difluorophenyl)azetidin-3-yl)-2-oxopiperazin-1-yl)cyclohexyl)-6-(2-hydroxypropan-2-yl)-2H-indazol-5-yl)pyrrolo[1,2-b]pyridazine-7-carboxamide]
DC50 [1]: 64 nM
Dmax [1]: 99%
Dmax [2]: 93%
DC50 [2]: 0.6 nM

SMILES: CC(C)(O)c1cc2nn([C@H]3CC[C@H](N4CCN([C@H]5C[C@@H](c6ccc(N[C@@H]7CCC(=O)NC7=O)cc6)C5)CC4)CC3)cc2cc1NC(=O)c1ccc2cc(C#N)cnn12 [Example 271, 3-cyano-N-(2-((1R,4r)-4-(4-((1S,3S)-3-(4-(((R)-2,6-dioxopiperidin-3-yl)amino)phenyl)cyclobutyl)piperazin-1-yl)cyclohexyl)-6-(2-hydroxypropan-2-yl)-2H-indazol-5-yl)pyrrolo[1,2-b]pyridazine-7-carboxamide]
DC50 [1]: 11 nM
Dmax [1]: 101%
Dmax [2]: 94%
DC50 [2]: 4 nM

Stronger by DC50 [1], values ahead:

DC50 [1]: 7.7 nM
Dmax [1]: 93%
Dmax [2]: 93%
DC50 [2]: 1.1 nM
SMILES: C[C@@H]1CN([C@H]2C[C@@H](c3cc(F)c([C@H]4CCC(=O)NC4=O)c(F)c3)C2)CCN1[C@H]1CC[C@H](n2cc3cc(NC(=O)c4ccc5cc(C#N)cnn45)c(C(C)(C)O)cc3n2)CC1 [Example 365, 3-cyano-N-(2-((1R,4r)-4-((R)-4-((1S,3S)-3-(4-((R)-2,6-dioxopipendin-3-yl)-3,5-difluorophenyl)cyclobutyl)-2-methylpiperazin-1-yl)cyclohexyl)-6-(2-hydroxypropan-2-yl)-2H-indazol-5-yl)pyrrolo[1,2-b]pyridazine-7-carboxamide]

DC50 [1]: 5.8 nM
Dmax [1]: 93%
Dmax [2]: 94%
DC50 [2]: 1.6 nM
SMILES: CC(C)(O)c1cc2nn([C@H]3CC[C@H](N4CCN(C[C@H]5C[C@@H](c6cc(F)c([C@H]7CCC(=O)NC7=O)c(F)c6)C5)CC4)CC3)cc2cc1NC(=O)c1ccc2cc(C#N)cnn12 [Example 383, 3-cyano-N-(2-((1R,4r)-4-(4-(((1S,3S)-3-(4-((R)-2,6-dioxopiperidin-3-yl)-3,5-difluorophenyl)cyclobutyl)methyl)piperazin-1-yl)cyclohexyl)-6-(2-hydroxypropan-2-yl)-2H-indazol-5-yl)pyrrolo[1,2-b]pyridazine-7-carboxamide]

DC50 [1]: 5.4 nM
Dmax [1]: 94%
Dmax [2]: 93%
DC50 [2]: 0.8 nM
SMILES: CC(C)(O)c1cc2nn([C@H]3CC[C@H](N4CCN(C5CN(c6cc(F)c([C@H]7CCC(=O)NC7=O)c(F)c6)C5)CC4)CC3)cc2cc1NC(=O)c1coc2cccnc12 [Example 404, N-(2-((1R,4r)-4-(4-(1-(4-((R)-2,6-dioxopiperidin-3-yl)-3,5-difluorophenyl)azetidin-3-yl)piperazin-1-yl)cyclohexyl)-6-(2-hydroxypropan-2-yl)-2H-indazol-5-yl)furo[3,2-b]pyridine-3-carboxamide]

DC50 [1]: 3.8 nM
Dmax [1]: 97%
Dmax [2]: 97%
DC50 [2]: 0.5 nM
SMILES: CC(C)(O)c1cc2nn([C@H]3CC[C@H](N4CCN(CC5CN(c6cc(F)c([C@H]7CCC(=O)NC7=O)c(F)c6)C5)C[C@@H]4CO)CC3)cc2cc1NC(=O)c1ccc2cc(C#N)cnn12 [Example 400, 3-cyano-N-(2-((1R,4r)-4-((R)-4-((1-(4-((R)-2,6-dioxopiperidin-3-yl)-3,5-difluorophenyl)azetidin-3-yl)methyl)-2-(hydroxymethyl)piperazin-1-yl)cyclohexyl)-6-(2-hydroxypropan-2-yl)-2H-indazol-5-yl)pyrrolo[1,2-b]pyridazine-7-carboxamide]

DC50 [1]: 2.3 nM
Dmax [1]: 102%
Dmax [2]: 97%
DC50 [2]: 0.1 nM
SMILES: COc1cc2nn([C@H]3CC[C@H](N4CCN(C(=O)C5CN(c6cc(F)c([C@H]7CCC(=O)NC7=O)c(F)c6)C5)CC4)CC3)cc2cc1C(=O)Nc1cnc2cccnn12 [Example 343, 2-((1r,4r)-4-(4-(1-(4-((R)-2,6-dioxopiperidin-3-yl)-3,5-difluorophenyl)azetidine-3-carbonyl)piperazin-1-yl)cyclohexyl)-N-(imidazo[1,2-b]pyridazin-3-yl)-6-methoxy-2H-indazole-5-carboxamide]
